From paper PMC9611727, “Optimization of a Novel Mandelamide-Derived Pyrrolopyrimidine Series of PERK Inhibitors” (Pharmaceutics, 2022)

Assays:
Assay in all cases: scanMAX kinase panel
Format in all cases: binding
CSF1R = target: T1, CSF1R (Homo sapiens, UniProt P07333); details: read-out: % Control; for remaining binding at 1 µM: 1000 nM
T1 construct: purchased DiscoverX scanMAX
From the text: (§1) Supplemental Table S2. scanMAXSM Kinome Assay Results. Complete tabulated data of all 468 kinases from the panel, including
(§2) 403 wild-type and 65 mutant isoforms. […] Cmpd 11 and Cmpd 24

TESK1 = target: T2, TESK1 (Homo sapiens, UniProt Q15569); details: read-out: % Control; for remaining binding at 1 µM: 1000 nM
T2 construct: purchased DiscoverX (scanMAX panel)
From the text: as §1, §2

RIPK2 = target: T3, RIPK2 (Homo sapiens, UniProt O43353); details: read-out: % Control; for remaining binding at 1 µM: 1000 nM
T3 construct: purchased DiscoverX (scanMAX panel)
From the text: as §1, §2

PRKR = target: T4, PRKR (Homo sapiens, UniProt P19525); details: read-out: % Control; for remaining binding at 1 µM: 1000 nM
T4 construct: purchased DiscoverX scanMAX
From the text: as §1, §2

CDK8 = target: T5, CDK8 (Homo sapiens, UniProt P49336); details: read-out: % Control; for remaining binding at 1 µM: 1000 nM
T5 construct: purchased DiscoverX scanMAX
From the text: as §1, §2

PIK3C2B = target: T6, PIK3C2B (Homo sapiens, UniProt O00750); details: read-out: % Control; for remaining binding at 1 µM: 1000 nM
T6 construct: purchased DiscoverX scanMAX
From the text: as §1, §2

FLT3(ITD,D835V) = system: FLT3(ITD,D835V)
From the text: as §1, §2

YSK4 = target: T7, YSK4 (Homo sapiens, UniProt Q56UN5); details: read-out: % Control; for remaining binding at 1 µM: 1000 nM
T7 construct: purchased DiscoverX (scanMAX panel)
T7 sequence (Q56UN5 1-1328): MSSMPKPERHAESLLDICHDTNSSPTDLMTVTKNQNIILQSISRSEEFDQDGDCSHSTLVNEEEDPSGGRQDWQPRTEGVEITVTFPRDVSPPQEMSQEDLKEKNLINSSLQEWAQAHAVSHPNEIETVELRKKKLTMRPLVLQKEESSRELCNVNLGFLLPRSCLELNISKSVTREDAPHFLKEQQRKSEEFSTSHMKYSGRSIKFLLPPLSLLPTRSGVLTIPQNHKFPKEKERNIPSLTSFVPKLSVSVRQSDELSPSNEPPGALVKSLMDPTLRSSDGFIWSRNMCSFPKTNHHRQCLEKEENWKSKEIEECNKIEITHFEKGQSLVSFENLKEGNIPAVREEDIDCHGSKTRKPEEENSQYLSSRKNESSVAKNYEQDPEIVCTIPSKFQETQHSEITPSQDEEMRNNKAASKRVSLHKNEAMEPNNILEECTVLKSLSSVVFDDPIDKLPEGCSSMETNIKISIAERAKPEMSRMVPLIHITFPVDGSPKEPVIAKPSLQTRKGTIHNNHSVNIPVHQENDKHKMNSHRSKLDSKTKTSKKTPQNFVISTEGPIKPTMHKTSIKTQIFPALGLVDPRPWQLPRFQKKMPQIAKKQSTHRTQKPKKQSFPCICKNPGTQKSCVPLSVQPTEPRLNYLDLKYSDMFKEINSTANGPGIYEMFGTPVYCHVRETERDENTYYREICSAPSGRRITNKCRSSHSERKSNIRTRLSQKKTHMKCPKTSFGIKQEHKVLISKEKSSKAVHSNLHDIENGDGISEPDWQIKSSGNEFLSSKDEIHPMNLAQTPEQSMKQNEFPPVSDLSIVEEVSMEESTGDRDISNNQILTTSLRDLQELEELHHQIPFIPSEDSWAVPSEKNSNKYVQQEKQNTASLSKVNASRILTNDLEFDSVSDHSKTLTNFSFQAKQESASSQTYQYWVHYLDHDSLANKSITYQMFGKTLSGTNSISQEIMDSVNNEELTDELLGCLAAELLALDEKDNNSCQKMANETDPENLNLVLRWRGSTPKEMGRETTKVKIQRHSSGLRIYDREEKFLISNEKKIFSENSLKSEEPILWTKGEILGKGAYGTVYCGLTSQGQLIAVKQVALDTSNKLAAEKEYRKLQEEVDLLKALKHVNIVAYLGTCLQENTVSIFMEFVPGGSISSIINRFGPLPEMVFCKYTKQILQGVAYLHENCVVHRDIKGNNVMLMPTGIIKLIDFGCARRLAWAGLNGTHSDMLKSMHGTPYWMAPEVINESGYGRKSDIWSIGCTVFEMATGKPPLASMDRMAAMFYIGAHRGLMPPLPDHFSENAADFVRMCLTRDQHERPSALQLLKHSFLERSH
From the text: as §1, §2

GCN2(Kin.Dom.2,S808G) = target: T8, GCN2(Kin.Dom.2,S808G) (Homo sapiens, UniProt Q9P2K8, S808G); details: read-out: % Control; for remaining binding at 1 µM: 1000 nM
T8 construct: GCN2(Kin.Dom.2,S808G); purchased DiscoverX scanMAX
T8 sequence (Q9P2K8 590-1001 S808G limits assumed): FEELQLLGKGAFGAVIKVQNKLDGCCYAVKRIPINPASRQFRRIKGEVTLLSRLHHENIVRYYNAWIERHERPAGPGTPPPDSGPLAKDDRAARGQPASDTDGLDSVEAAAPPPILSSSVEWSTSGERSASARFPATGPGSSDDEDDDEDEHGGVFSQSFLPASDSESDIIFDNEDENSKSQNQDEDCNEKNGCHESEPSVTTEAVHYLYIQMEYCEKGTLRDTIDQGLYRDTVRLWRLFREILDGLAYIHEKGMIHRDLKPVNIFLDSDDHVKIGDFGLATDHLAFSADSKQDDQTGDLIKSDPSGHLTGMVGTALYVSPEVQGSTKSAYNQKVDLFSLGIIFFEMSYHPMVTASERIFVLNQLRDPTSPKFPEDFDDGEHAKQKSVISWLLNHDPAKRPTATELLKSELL
From the text: as §1, §2

TYK2(JH2domain-pseudok.) = target: T9, TYK2(JH2domain-pseudok.) (Homo sapiens, UniProt P29597); details: read-out: % Control; for remaining binding at 1 µM: 1000 nM
T9 construct: TYK2(JH2domain-pseudok.); purchased DiscoverX (scanMAX panel)
From the text: as §1, §2

T4 sequence (P19525 whole entry): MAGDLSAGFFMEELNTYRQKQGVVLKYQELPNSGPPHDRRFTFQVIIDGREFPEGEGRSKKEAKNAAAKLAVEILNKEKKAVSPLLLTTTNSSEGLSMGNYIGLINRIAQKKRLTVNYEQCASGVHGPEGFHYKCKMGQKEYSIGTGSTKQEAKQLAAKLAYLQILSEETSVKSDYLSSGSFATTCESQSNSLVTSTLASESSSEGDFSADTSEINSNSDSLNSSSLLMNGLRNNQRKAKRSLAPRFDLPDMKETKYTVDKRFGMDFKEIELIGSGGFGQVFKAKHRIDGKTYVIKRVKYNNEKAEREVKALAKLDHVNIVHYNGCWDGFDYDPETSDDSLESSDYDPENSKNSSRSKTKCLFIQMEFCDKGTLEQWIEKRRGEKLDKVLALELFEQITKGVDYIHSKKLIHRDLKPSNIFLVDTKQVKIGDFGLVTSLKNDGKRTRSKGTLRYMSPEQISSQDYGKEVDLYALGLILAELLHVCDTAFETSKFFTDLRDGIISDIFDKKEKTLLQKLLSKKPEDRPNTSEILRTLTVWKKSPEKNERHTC
T2 sequence (Q15569 whole entry): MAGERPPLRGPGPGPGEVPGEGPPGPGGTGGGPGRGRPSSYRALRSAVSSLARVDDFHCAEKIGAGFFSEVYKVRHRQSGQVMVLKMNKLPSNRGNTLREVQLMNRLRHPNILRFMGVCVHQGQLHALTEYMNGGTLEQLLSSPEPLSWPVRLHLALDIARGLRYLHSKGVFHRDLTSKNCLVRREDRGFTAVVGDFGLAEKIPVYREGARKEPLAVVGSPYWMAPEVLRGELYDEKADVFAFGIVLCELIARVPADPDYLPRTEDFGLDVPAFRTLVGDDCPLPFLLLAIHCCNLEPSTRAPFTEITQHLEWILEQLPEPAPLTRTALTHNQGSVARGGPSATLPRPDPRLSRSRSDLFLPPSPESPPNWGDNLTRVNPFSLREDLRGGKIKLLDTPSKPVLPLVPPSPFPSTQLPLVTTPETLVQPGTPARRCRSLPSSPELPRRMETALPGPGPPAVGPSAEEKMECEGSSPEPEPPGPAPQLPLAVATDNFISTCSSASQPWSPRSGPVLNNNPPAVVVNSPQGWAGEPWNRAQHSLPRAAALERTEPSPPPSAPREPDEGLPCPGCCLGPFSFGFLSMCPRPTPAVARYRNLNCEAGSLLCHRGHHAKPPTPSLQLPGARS
T1 sequence (P07333 20-972): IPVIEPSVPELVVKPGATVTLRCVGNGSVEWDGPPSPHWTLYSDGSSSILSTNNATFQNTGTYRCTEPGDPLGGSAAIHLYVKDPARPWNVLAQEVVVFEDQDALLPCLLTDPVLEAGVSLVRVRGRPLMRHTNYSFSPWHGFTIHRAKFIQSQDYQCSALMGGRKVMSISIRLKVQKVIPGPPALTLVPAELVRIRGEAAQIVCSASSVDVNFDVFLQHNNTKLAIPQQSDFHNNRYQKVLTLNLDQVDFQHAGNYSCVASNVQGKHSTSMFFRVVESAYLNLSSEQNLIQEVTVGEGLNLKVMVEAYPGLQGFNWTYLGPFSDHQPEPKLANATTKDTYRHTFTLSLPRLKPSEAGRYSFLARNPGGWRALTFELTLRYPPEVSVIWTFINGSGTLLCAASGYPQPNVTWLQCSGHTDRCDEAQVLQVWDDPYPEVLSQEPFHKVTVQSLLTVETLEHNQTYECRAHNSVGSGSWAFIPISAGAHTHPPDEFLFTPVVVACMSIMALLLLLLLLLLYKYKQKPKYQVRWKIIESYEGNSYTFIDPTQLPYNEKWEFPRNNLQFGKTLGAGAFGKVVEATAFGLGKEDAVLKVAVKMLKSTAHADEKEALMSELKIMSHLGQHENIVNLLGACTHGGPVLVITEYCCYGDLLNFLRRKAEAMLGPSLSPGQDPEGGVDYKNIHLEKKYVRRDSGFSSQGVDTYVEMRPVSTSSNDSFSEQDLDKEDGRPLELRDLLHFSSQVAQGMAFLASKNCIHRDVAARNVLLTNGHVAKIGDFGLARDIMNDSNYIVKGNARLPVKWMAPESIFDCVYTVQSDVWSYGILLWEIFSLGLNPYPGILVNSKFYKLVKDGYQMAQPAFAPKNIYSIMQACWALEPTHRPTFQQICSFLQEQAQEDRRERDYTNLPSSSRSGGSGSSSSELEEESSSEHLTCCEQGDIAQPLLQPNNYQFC
T3 sequence (O43353 whole entry): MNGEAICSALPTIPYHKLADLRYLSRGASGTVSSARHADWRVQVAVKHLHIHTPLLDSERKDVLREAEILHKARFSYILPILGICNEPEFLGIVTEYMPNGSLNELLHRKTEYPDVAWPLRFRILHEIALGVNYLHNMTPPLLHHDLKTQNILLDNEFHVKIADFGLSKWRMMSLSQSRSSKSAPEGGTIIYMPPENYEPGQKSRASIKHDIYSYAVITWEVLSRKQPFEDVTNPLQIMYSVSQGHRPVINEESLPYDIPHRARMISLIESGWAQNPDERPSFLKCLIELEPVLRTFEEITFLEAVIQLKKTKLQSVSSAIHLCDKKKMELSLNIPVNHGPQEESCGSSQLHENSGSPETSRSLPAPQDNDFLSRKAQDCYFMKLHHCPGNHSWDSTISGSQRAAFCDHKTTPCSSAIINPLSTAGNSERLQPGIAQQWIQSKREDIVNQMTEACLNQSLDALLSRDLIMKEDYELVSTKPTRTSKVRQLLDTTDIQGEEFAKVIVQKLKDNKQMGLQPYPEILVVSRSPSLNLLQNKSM
T6 sequence (O00750 whole entry): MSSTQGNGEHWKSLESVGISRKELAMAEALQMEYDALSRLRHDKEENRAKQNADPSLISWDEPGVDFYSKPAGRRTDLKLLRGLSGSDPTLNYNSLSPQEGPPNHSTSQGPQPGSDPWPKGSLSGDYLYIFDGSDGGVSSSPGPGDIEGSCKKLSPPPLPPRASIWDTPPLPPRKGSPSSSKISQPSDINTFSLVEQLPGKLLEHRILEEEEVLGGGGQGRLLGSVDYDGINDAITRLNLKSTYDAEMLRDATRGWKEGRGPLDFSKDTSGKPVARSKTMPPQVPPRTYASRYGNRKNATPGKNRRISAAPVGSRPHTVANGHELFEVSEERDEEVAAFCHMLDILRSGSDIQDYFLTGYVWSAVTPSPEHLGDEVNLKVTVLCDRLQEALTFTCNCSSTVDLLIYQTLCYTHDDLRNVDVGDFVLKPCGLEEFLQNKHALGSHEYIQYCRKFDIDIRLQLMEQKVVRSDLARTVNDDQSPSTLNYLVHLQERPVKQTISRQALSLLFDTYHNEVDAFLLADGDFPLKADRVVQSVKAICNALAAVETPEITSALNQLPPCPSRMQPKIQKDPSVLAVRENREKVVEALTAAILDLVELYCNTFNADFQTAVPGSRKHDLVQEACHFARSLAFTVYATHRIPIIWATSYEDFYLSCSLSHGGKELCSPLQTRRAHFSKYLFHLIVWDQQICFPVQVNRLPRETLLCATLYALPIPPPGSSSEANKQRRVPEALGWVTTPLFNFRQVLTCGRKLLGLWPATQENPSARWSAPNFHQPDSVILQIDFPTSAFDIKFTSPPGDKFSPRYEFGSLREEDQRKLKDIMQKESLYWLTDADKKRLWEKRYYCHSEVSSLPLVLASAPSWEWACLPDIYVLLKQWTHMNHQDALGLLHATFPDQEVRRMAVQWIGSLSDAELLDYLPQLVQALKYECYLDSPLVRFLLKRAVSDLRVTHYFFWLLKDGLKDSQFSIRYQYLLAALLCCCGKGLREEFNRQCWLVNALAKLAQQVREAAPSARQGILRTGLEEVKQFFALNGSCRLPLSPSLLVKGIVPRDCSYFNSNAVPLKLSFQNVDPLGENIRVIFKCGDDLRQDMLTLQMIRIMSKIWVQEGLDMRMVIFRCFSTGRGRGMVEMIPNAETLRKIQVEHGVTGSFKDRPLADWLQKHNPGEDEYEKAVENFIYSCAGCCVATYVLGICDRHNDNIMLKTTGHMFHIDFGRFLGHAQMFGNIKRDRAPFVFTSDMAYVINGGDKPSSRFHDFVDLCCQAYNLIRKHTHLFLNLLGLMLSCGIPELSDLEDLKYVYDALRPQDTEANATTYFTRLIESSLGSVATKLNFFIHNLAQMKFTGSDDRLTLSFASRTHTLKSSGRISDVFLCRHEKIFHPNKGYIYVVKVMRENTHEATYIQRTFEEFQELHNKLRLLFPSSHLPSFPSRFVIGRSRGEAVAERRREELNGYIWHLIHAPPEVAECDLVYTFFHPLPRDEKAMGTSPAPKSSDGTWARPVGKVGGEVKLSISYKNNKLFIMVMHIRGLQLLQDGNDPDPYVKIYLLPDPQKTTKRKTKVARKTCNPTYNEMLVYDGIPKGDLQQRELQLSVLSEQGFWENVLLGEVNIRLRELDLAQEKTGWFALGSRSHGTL
T5 sequence (P49336 whole entry): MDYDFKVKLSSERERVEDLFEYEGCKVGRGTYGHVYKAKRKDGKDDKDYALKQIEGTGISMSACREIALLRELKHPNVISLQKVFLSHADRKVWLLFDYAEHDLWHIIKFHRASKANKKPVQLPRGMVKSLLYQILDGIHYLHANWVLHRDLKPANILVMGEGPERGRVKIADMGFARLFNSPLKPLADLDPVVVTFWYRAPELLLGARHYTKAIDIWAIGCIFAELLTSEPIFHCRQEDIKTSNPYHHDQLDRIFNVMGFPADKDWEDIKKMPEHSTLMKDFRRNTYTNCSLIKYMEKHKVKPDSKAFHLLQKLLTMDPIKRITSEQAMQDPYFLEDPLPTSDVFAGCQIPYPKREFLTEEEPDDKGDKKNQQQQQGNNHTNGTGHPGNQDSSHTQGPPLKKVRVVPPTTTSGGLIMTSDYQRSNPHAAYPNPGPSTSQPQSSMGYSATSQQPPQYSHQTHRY
T9 sequence (P29597 589-875 limits assumed): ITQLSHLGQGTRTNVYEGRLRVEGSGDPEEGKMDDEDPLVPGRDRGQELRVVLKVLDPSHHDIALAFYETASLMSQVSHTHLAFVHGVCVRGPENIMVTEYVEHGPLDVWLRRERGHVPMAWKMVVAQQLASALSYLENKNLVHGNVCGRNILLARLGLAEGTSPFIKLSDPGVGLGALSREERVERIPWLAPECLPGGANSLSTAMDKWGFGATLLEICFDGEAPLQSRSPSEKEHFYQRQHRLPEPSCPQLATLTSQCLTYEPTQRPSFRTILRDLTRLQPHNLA

SMILES: Cc1cc(NC(=O)[C@H](O)c2cccc(F)c2)ccc1-c1cn(C)c2ncnc(N)c12 [Compound 11, (R)-N-(4-(4-amino-7-methyl-7H-pyrrolo[2,3-d]pyrimidin-5-yl)-3-methylphenyl)-2-(3-fluorophenyl)-2-hydroxy acetamide]
- remaining binding at 1 µM (CSF1R): 45%
- remaining binding at 1 µM (TESK1): 15%
- remaining binding at 1 µM (RIPK2): 15%
- remaining binding at 1 µM (PRKR): 42%
- remaining binding at 1 µM (CDK8): 2.5%
- remaining binding at 1 µM (PIK3C2B): 27%
- % Control (FLT3(ITD,D835V); 1000 nM): 89%
- remaining binding at 1 µM (YSK4): 18%
- remaining binding at 1 µM (GCN2(Kin.Dom.2,S808G)): 84%
- remaining binding at 1 µM (TYK2(JH2domain-pseudok.)): 80%

SMILES: Cc1nc(N)c2c(-c3ccc(NC(=O)[C@H](O)c4cccc(F)c4)cc3C)cn(C)c2n1 [Compound 24]
- remaining binding at 1 µM (CSF1R): 94%
- remaining binding at 1 µM (TESK1): 100%
- remaining binding at 1 µM (RIPK2): 100%
- remaining binding at 1 µM (PRKR): 42%
- remaining binding at 1 µM (CDK8): 98%
- remaining binding at 1 µM (PIK3C2B): 100%
- % Control (FLT3(ITD,D835V); 1000 nM): 100%
- remaining binding at 1 µM (YSK4): 100%
- remaining binding at 1 µM (GCN2(Kin.Dom.2,S808G)): 100%
- remaining binding at 1 µM (TYK2(JH2domain-pseudok.)): 79%

SMILES: Cc1nc(N)c2c(-c3ccc(NC(=O)[C@H](O)c4cccc(C(F)(F)F)c4)cc3C)cn(C)c2n1 [Compound 26]
- remaining binding at 0.1 µM (CSF1R; 100 nM): 99%
- remaining binding at 1 µM (CSF1R): 15%
- remaining binding at 0.1 µM (TESK1; 100 nM): 97%
- remaining binding at 1 µM (TESK1): 99%
- remaining binding at 0.1 µM (RIPK2; 100 nM): 91%
- remaining binding at 1 µM (RIPK2): 43%
- remaining binding at 0.1 µM (PRKR; 100 nM): 91%
- remaining binding at 1 µM (PRKR): 96%
- remaining binding at 0.1 µM (CDK8; 100 nM): 100%
- remaining binding at 1 µM (CDK8): 57%
- remaining binding at 0.1 µM (PIK3C2B; 100 nM): 100%
- remaining binding at 1 µM (PIK3C2B): 78%
- % Control (FLT3(ITD,D835V); 100 nM): 100%
- % Control (FLT3(ITD,D835V); 1000 nM): 75%
- remaining binding at 0.1 µM (YSK4; 100 nM): 95%
- remaining binding at 1 µM (YSK4): 55%
- remaining binding at 0.1 µM (GCN2(Kin.Dom.2,S808G); 100 nM): 76%
- remaining binding at 1 µM (GCN2(Kin.Dom.2,S808G)): 94%
- remaining binding at 0.1 µM (TYK2(JH2domain-pseudok.); 100 nM): 98%
- remaining binding at 1 µM (TYK2(JH2domain-pseudok.)): 30%
